The source made the active and inactive calls. The rule behind the calls is not given here.
System: CCRIS mutagenicity, Ames/micronucleus/aberration tests
Assay: CCRIS mutagenicity studies
[1] = Test System: AMES SALMONELLA TYPHIMURIUM, Strain/Indicator: TA98, Metabolic Activation: NONE, Method: PREINCUBATION
[2] = Test System: AMES SALMONELLA TYPHIMURIUM, Strain/Indicator: TA100, Metabolic Activation: NONE, Method: PREINCUBATION
[3] = Test System: AMES SALMONELLA TYPHIMURIUM, Strain/Indicator: TA1535, Metabolic Activation: NONE, Method: PREINCUBATION
[4] = Test System: AMES SALMONELLA TYPHIMURIUM, Strain/Indicator: TA1537, Metabolic Activation: NONE, Method: PREINCUBATION
[5] = Test System: AMES SALMONELLA TYPHIMURIUM, Strain/Indicator: TA98, Metabolic Activation: NONE, Method: STANDARD PLATE
[6] = Test System: AMES SALMONELLA TYPHIMURIUM, Strain/Indicator: TA98, Metabolic Activation: RAT, LIVER, S-9, AROCLOR 1254, Method: STANDARD PLATE
[7] = Test System: AMES SALMONELLA TYPHIMURIUM, Strain/Indicator: TA100, Metabolic Activation: NONE, Method: STANDARD PLATE

For `CC(=O)C[C@@H]1CCCCCC(=O)O[C@H](CC(C)=O)CCC(=O)CCC(=O)O1`, the mutagenic call (Test System: CHINESE HAMSTER V-79, Strain/Indicator: V-79 (HPRT)/6-THIOGUANINE, Metabolic Activation: NONE) was “active; positive”.
`NC(=O)NNC(N)=O` was tested, and the mutagenic call (Test System: AMES SALMONELLA TYPHIMURIUM, Strain/Indicator: TA97, Metabolic Activation: HAMSTER, LIVER, S-9, AROCLOR 1254 (10 OR 30%), Method: PREINCUBATION) was “inactive; negative”, the mutagenic call (Test System: AMES SALMONELLA TYPHIMURIUM, Strain/Indicator: TA97, Metabolic Activation: NONE, Method: PREINCUBATION) was “inactive; negative” and the mutagenic call (Test System: AMES SALMONELLA TYPHIMURIUM, Strain/Indicator: TA97, Metabolic Activation: RAT, LIVER, S-9, AROCLOR 1254 (10 OR 30%), Method: PREINCUBATION) was “inactive; negative”. For the same compound, the mutagenic call (Test System: AMES SALMONELLA TYPHIMURIUM, Strain/Indicator: TA98, Metabolic Activation: HAMSTER, LIVER, S-9, AROCLOR 1254 (10 OR 30%), Method: PREINCUBATION) was “inactive; negative”, the mutagenic call [1] was “inactive; negative” and the mutagenic call (Test System: AMES SALMONELLA TYPHIMURIUM, Strain/Indicator: TA98, Metabolic Activation: RAT, LIVER, S-9, AROCLOR 1254 (10 OR 30%), Method: PREINCUBATION) was “inactive; negative”. The mutagenic call (Test System: AMES SALMONELLA TYPHIMURIUM, Strain/Indicator: TA100, Metabolic Activation: HAMSTER, LIVER, S-9, AROCLOR 1254 (10 OR 30%), Method: PREINCUBATION) was “inactive; negative”, the mutagenic call [2] was “inactive; negative” and the mutagenic call (Test System: AMES SALMONELLA TYPHIMURIUM, Strain/Indicator: TA100, Metabolic Activation: RAT, LIVER, S-9, AROCLOR 1254 (10 OR 30%), Method: PREINCUBATION) was “inactive; negative”. The mutagenic call (Test System: AMES SALMONELLA TYPHIMURIUM, Strain/Indicator: TA1535, Metabolic Activation: HAMSTER, LIVER, S-9, AROCLOR 1254 (10 OR 30%), Method: PREINCUBATION) was “inactive; negative”, the mutagenic call [3] was “inactive; negative” and the mutagenic call (Test System: AMES SALMONELLA TYPHIMURIUM, Strain/Indicator: TA1535, Metabolic Activation: RAT, LIVER, S-9, AROCLOR 1254 (10 OR 30%), Method: PREINCUBATION) was “inactive; negative”. The mutagenic call (Test System: AMES SALMONELLA TYPHIMURIUM, Strain/Indicator: TA1537, Metabolic Activation: HAMSTER, LIVER, S-9, AROCLOR 1254 (10 OR 30%), Method: PREINCUBATION) was “inactive; negative”, the mutagenic call [4] was “inactive; negative” and the mutagenic call (Test System: AMES SALMONELLA TYPHIMURIUM, Strain/Indicator: TA1537, Metabolic Activation: RAT, LIVER, S-9, AROCLOR 1254 (10 OR 30%), Method: PREINCUBATION) was “inactive; negative”.
For `NNc1ccccc1[N+](=O)[O-]`, the mutagenic call [1] was “active; positive”, the mutagenic call (Test System: AMES SALMONELLA TYPHIMURIUM, Strain/Indicator: TA98, Metabolic Activation: RAT, LIVER, S-9, KANECHLOR 500, Method: PREINCUBATION) was “active; positive” and the mutagenic call [2] was “active; positive”.
With `O=[N+]([O-])c1ccc2c3c4c(cccc4c4ccccc4c13)[C@H](O)[C@H]2O` the mutagenic call (Test System: AMES SALMONELLA TYPHIMURIUM, Strain/Indicator: TA98(1,8-DNP6), Metabolic Activation: NONE, Method: STANDARD PLATE) was “active; positive”, the mutagenic call (Test System: AMES SALMONELLA TYPHIMURIUM, Strain/Indicator: TA98(1,8-DNP6), Metabolic Activation: RAT, LIVER, S-9, AROCLOR 1254, Method: STANDARD PLATE) was “active; positive” and the mutagenic call (Test System: AMES SALMONELLA TYPHIMURIUM, Strain/Indicator: TA98(NR), Metabolic Activation: NONE, Method: STANDARD PLATE) was “active; positive”. For the same compound, the mutagenic call (Test System: AMES SALMONELLA TYPHIMURIUM, Strain/Indicator: TA98(NR), Metabolic Activation: RAT, LIVER, S-9, AROCLOR 1254, Method: STANDARD PLATE) was “active; positive”, the mutagenic call [5] was “active; positive” and the mutagenic call [6] was “active; positive”.
In the case of `COC(=O)Nc1nc2ccc(O)cc2[nH]1`, the mutagenic call [5] is reported as “inactive; negative”, the mutagenic call [6] is reported as “inactive; negative” and the mutagenic call [7] is reported as “inactive; negative”. The mutagenic call (Test System: AMES SALMONELLA TYPHIMURIUM, Strain/Indicator: TA100, Metabolic Activation: RAT, LIVER, S-9, AROCLOR 1254, Method: STANDARD PLATE) was “inactive; negative”, the mutagenic call (Test System: AMES SALMONELLA TYPHIMURIUM, Strain/Indicator: TA1535, Metabolic Activation: NONE, Method: STANDARD PLATE) was “inactive; negative” and the mutagenic call (Test System: AMES SALMONELLA TYPHIMURIUM, Strain/Indicator: TA1535, Metabolic Activation: RAT, LIVER, S-9, AROCLOR 1254, Method: STANDARD PLATE) was “inactive; negative”. For the same compound, the mutagenic call (Test System: AMES SALMONELLA TYPHIMURIUM, Strain/Indicator: TA1537, Metabolic Activation: NONE, Method: STANDARD PLATE) was “inactive; negative” and the mutagenic call (Test System: AMES SALMONELLA TYPHIMURIUM, Strain/Indicator: TA1537, Metabolic Activation: RAT, LIVER, S-9, AROCLOR 1254, Method: STANDARD PLATE) was “inactive; negative”.
`O=C1c2ccccc2C(=O)c2c1cc(O)c(C(=O)O)c2O` was tested, and the mutagenic call [1] was “inactive; negative”, the mutagenic call (Test System: AMES SALMONELLA TYPHIMURIUM, Strain/Indicator: TA98, Metabolic Activation: RAT, LIVER, S-9, PCB, Method: PREINCUBATION) was “inactive; negative” and the mutagenic call [2] was “inactive; negative”. The mutagenic call (Test System: AMES SALMONELLA TYPHIMURIUM, Strain/Indicator: TA100, Metabolic Activation: RAT, LIVER, S-9, PCB, Method: PREINCUBATION) was “inactive; negative”.
In the case of `CCCCCCCCCCCCCCCCCC(=O)NCCCC[C@@H](NC(=O)CC[C@@H](NC(=O)[C@H](C)NC(=O)[C@@H](C)O[C@H]1[C@H](O)[C@@H](CO)OC(O)[C@@H]1NC(C)=O)C(N)=O)C(=O)O` (some centres not stated), the mutagenic call [1] is reported as “inactive; negative”, the mutagenic call (Test System: AMES SALMONELLA TYPHIMURIUM, Strain/Indicator: TA98, Metabolic Activation: RAT, LIVER, S-9, KC-500, Method: PREINCUBATION) is reported as “inactive; negative” and the mutagenic call [2] is reported as “inactive; negative”. The mutagenic call (Test System: AMES SALMONELLA TYPHIMURIUM, Strain/Indicator: TA100, Metabolic Activation: RAT, LIVER, S-9, KC-500, Method: PREINCUBATION) was “inactive; negative”, the mutagenic call [3] was “inactive; negative” and the mutagenic call (Test System: AMES SALMONELLA TYPHIMURIUM, Strain/Indicator: TA1535, Metabolic Activation: RAT, LIVER, S-9, KC-500, Method: PREINCUBATION) was “inactive; negative”. The mutagenic call [4] was “inactive; negative”, the mutagenic call (Test System: AMES SALMONELLA TYPHIMURIUM, Strain/Indicator: TA1537, Metabolic Activation: RAT, LIVER, S-9, KC-500, Method: PREINCUBATION) was “inactive; negative” and the mutagenic call (Test System: AMES SALMONELLA TYPHIMURIUM, Strain/Indicator: TA1538, Metabolic Activation: NONE, Method: PREINCUBATION) was “inactive; negative”. For the same compound, the mutagenic call (Test System: AMES SALMONELLA TYPHIMURIUM, Strain/Indicator: TA1538, Metabolic Activation: RAT, LIVER, S-9, KC-500, Method: PREINCUBATION) was “inactive; negative”, the mutagenic call (Test System: E. COLI, Strain/Indicator: WP2 UVRA, Metabolic Activation: NONE, Method: PREINCUBATION) was “inactive; negative” and the mutagenic call (Test System: E. COLI, Strain/Indicator: WP2 UVRA, Metabolic Activation: RAT, LIVER, S-9, KC-500, Method: PREINCUBATION) was “inactive; negative”.
With `OC1C[C@]23C=CC=C[C@@]2(C1)O3` (some centres not stated) the mutagenic call [5] was “inactive; negative”, the mutagenic call [7] was “inactive; negative” and the mutagenic call (Test System: AMES SALMONELLA TYPHIMURIUM, Strain/Indicator: TM677/8-AZAGUANINE, Metabolic Activation: NONE, Method: STANDARD PLATE) was “active; positive”.

From PubChem BioAssay AID1259407 (Chemical Carcinogenesis Research Information System (CCRIS), 2018)
